Experiment [1] concerns Jurkat HIV-luciferase clones. Nature of the experiment: Jurkat latency reversal assay. Format: cell-based. Conditions: Homo sapiens, 48 h; Jurkat latency reversal assay potency; read-out: Jurkat pEC50 (converted). On the procedure: Jurkat HIV-luciferase clones were maintained in RPMI medium 1640 (Gibco by Life Technologies) containing 10% (vol/vol) fetal bovine serum (SAFC/Sigma-Aldrich) and 25 units/mL penicillin, 25 units/mL streptomycin (Gibco by Life Technologies), and were split 1:4 every 3 to 4 days to maintain a cell density of ˜0.3 to 1 million cells/mL. The Jurkat clones were maintained with the addition of 500 nM EFV in the medium. Three Jurkat cell clones (C16, 115, and N6), each harboring one or two integrated HIV proviruses expressing the luciferase reporter gene, were added at equal amounts for a total of 5,000 cells per well to 384-well plates containing compound titrations. Dose-response testing was performed on compounds dissolved in dimethyl sulfoxide (DMSO; Fisher Scientific, Merelbeke, Belgium) dispensed in duplicate serial 3-fold, 14-point titrations using a D300e Digital Droplet Dispenser (Hewlett-Packard) to give final assay concentrations of 10 μM to […] in 50 μL of medium at 0.5% DMSO (vol/vol) final concentration. Cells and compound were incubated at 37° C. for 48 hours, unless otherwise indicated, followed by the addition of 20 μL of Steady-Glo® Luciferase (Promega). Luminescence resulting from the induction of the virally expressed luciferase was measured using an EnVision 2102 Multilabel Plate Reader (Perkin Elmer). Dose-response relationships were analyzed with GraphPad PRISM 6 using a four-parameter logistic regression model to calculate the concentration of compound that gives half-maximal response (EC50) and the maximal percent activation compared to the vehicle control.

The target of the next experiment is cIAP1-BIR3 (Homo sapiens (Human), UniProt Q13490). Nature of the experiment: BIR binding assay (FRET competition), cIAP1 BIR3. The note with it: for cIAP1 BIR3 vs BIR2 separation window: fold separation (FS) for cIAP1. On the procedure:
(§1) The BIR domain binding assays are FRET based competition assays that utilize His-tagged versions of each of the BIR2 and BIR3 domains from cIAP1, cIAP2, and XIAP (each domain assayed separately) each at a custom optimal concentration and a probe, 200 nM SMAC/DIABLO peptide […] labelled with AlexaFluor647 (part #crb 1110326h, Discovery Peptides). The assay is conducted in 50 mM HEPES, […], 1 mM CHAPS, 5% Glycerol, 1 mM DTT, in dI water with a final pH of 7.4 and final volume of 20 uL. Final protein domain concentrations are: 50 nM cIAP1-BIR3 (Part #APT-11-370 Reaction Biology), 100 nM XIAP-BIR3 (Part #APT-11-351 Reaction Biology), 200 nM XIAP-BIR2 (Part #APT-11-470 Reaction Biology), 325 nM cIAP2-BIR2 (Part #APT-11-489 Reaction Biology), 50 nM cIAP2-BIR3 (Part #APT-11-372 Reaction Biology), 325 nM cIAP1-BIR2 (Part #APT-11-487 Reaction Biology). Compounds were plated using a HP Tecan D300 printer in a final total volume of 202 nl and DMSO concentration normalized across the 15-point, 3-fold dilution series. Peptide and probe were prepared at 2× relative to the concentrations above in binding buffer, 10 uL added to the prepared compound plates, and incubated for 60 minutes. LANCE Eu-W1024 (part #AD0401 Perkin Elmer #, vendor) was prepared at 2× concentration in binding buffer for final concentration of 2 nM, 10 uL added to each well, and plates incubated for 30 minutes. Plates were read on an ENVISION multifunction plate reader with […] laser excitation to obtain the 615 nm/665 nm emission ratio as indicative of probe:protein proximity. Data was analyzed using GraphPad PRISM and curves fit using log(inhibitor) vs. response—Variable slope (four […] method to obtain IC50 and pIC50 values.

The next experiment has as its target cIAP1-BIR2 (Homo sapiens (Human), UniProt Q13490). In words: BIR binding assay (FRET competition), cIAP1 BIR2. The method, then: as §1
A further experiment concerns the target cIAP2-BIR3 (Homo sapiens (Human), UniProt Q13489). In words: BIR binding assay (FRET competition), cIAP2 BIR3. The note with it: for cIAP2 BIR3 vs BIR2 separation window: fold separation (FS) for cIAP2. On the procedure:
as §1

The target of another experiment is cIAP2-BIR2 (Homo sapiens (Human), UniProt Q13489). In words: BIR binding assay (FRET competition), cIAP2 BIR2. The method, then: as §1
In another experiment the target is XIAP-BIR3 (Homo sapiens (Human), UniProt P98170). In words: BIR binding assay (FRET competition), XIAP BIR3. On the procedure: as §1

The term IC50 denotes the concentration needed to halve the response being measured. The low end stands for greater potency, the high end for weaker potency.

The structures appear in SMILES notation.

cIAP1-BIR3, sequence (Q13490 253-363): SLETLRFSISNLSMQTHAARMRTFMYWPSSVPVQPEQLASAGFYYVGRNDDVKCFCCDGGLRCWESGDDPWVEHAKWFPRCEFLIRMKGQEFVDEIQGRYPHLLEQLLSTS
cIAP2-BIR2, sequence (Q13489 158-242): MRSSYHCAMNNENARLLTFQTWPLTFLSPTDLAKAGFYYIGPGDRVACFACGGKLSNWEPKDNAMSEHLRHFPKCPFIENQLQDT
cIAP2-BIR3, sequence (Q13489 238-349): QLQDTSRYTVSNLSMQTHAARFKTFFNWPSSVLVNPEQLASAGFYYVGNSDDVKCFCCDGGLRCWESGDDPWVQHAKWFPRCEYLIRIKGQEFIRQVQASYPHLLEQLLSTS
cIAP1-BIR2, sequence (Q13490 173-257): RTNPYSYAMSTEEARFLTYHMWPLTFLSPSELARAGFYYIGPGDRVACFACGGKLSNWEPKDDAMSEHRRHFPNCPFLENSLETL
XIAP-BIR3, sequence (P98170 241-356): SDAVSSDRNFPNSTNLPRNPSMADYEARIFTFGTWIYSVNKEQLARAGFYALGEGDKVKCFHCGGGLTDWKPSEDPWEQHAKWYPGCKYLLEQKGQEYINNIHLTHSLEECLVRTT

For `COc1cc(F)ccc1Cc1cnc2c(c1)N(C(=O)CN1C[C@@H](C)NC[C@@H]1CN1CCO[C@H](COc3cccc(OC[C@@H]4CN(C[C@H]5CN[C@H](C)CN5CC(=O)N5CC(C)(C)c6ncc(Cc7ccc(F)cc7OC)cc65)CCO4)c3)C1)CC2(C)C` [Compound 151], in experiment [1], the EC50 was 63.1 to 316 nM. The IC50 on cIAP1-BIR3 is 15.8 to 31.6 nM; on cIAP1-BIR2 it was 3160 to 10000 nM; at cIAP2-BIR3, 7.94 to 15.8 nM; at cIAP2-BIR2, 3160 to 10000 nM; on XIAP-BIR3, 31.6 to 501 nM. On cIAP1-BIR3, the “cIAP1 BIR3 vs BIR2 separation window” value is listed as “+++ (10,000>FS>1,000)”. Further, the “cIAP2 BIR3 vs BIR2 separation window” value at cIAP2-BIR3 is reported as “+++ (10,000>FS>1,000)”.

`COC(=O)c1cc(F)ccc1Cc1cnc2c(c1)N(C(=O)CN1C[C@@H](C)NC[C@@H]1CN1CCO[C@H](COc3cccc(OC[C@@H]4CN(C[C@H]5CN[C@H](C)CN5CC(=O)N5CC(C)(C)c6ncc(Cc7ccc(F)cc7C(=O)OC)cc65)CCO4)c3)C1)CC2(C)C` [Compound 152]: in experiment [1], the EC50 was 63.1 to 316 nM. The IC50 at cIAP1-BIR3 fell in the range of 7.94 to 15.8 nM; on cIAP1-BIR2, 3160 to 10000 nM; at cIAP2-BIR3, 7.94 to 15.8 nM; on cIAP2-BIR2, 3160 to 10000 nM; at XIAP-BIR3, 31.6 to 501 nM. In addition, the “cIAP1 BIR3 vs BIR2 separation window” value at cIAP1-BIR3 was “+++ (10,000>FS>1,000)”. In addition, the “cIAP2 BIR3 vs BIR2 separation window” value on cIAP2-BIR3 is given as “+++ (10,000>FS>1,000)”.

With `C[C@@H]1CN(CC(=O)N2CC(C)(C)c3[nH]c(=O)c(Cc4ccc(Cl)cc4)cc32)[C@@H](CN2CCO[C@H](C(=O)NCc3ccc(CNC(=O)[C@@H]4CN(C[C@H]5CN[C@H](C)CN5CC(=O)N5CC(C)(C)c6[nH]c(=O)c(Cc7ccc(Cl)cc7)cc65)CCO4)cc3)C2)CN1` [Compound 161, (2S,2′S)-N,N′-(1,4-phenylenebis(methylene)) bis(4-(((2R,5R)-1-(2-(6-(4-chlorobenzyl)-3,3-dimethyl-5-oxo-2,3,4,5-tetrahydro-1H-pyrrolo[3,2-b]pyridin-1-yl)-2-oxoethyl)-5-methylpiperazin-2-yl)methyl)morpholine-2-carboxamide)], the EC50 in experiment [1] was 0.49 to 12.6 nM. Also, the IC50 is 1.38 to 7.94 nM at cIAP1-BIR3; 22.4 to 1000 nM at cIAP1-BIR2; 1.38 to 7.94 nM at cIAP2-BIR3; 10000 to 51300 nM on cIAP2-BIR2; 7.94 to 15.8 nM at XIAP-BIR3. Besides, the “cIAP1 BIR3 vs BIR2 separation window” value at cIAP1-BIR3 was “+++ (10,000>FS>1,000)”. The “cIAP2 BIR3 vs BIR2 separation window” value on cIAP2-BIR3 is on record as “++++ (FS>10,000)”.

For the compound `C[C@@H]1CN(CC(=O)N2CC(C)(C)c3[nH]c(=O)c(Cc4ccc(Br)cc4)cc32)[C@@H](CN2CCO[C@H](C(=O)NCc3ccc(CNC(=O)[C@@H]4CN(C[C@H]5CN[C@H](C)CN5CC(=O)N5CC(C)(C)c6[nH]c(=O)c(Cc7ccc(Br)cc7)cc65)CCO4)cc3)C2)CN1` [Compound 162, (2S,2′S)-N,N′-(1,4-phenylenebis(methylene)) bis(4-(((2R,5R)-1-(2-(6-(4-bromobenzyl)-3,3-dimethyl-5-oxo-2,3,4,5-tetrahydro-1H-pyrrolo[3,2-b]pyridin-1-yl)-2-oxoethyl)-5-methylpiperazin-2-yl)methyl)morpholine-2-carboxamide)], the EC50 in experiment [1] was 12.6 to 63.1 nM. Moreover, the IC50 on cIAP1-BIR3 was in the range of 1.38 to 7.94 nM; on cIAP1-BIR2 it was 22.4 to 1000 nM; on cIAP2-BIR3, 1.38 to 7.94 nM; on cIAP2-BIR2, 22.4 to 1000 nM; at XIAP-BIR3, 15.8 to 31.6 nM. Further, on cIAP1-BIR3, the “cIAP1 BIR3 vs BIR2 separation window” value is listed as “++ (1,000>FS>100)”. Besides, the “cIAP2 BIR3 vs BIR2 separation window” value at cIAP2-BIR3 is on record as “+++ (10,000>FS>1,000)”.

Take `C[C@@H]1CN(CC(=O)N2CC(C)(C)c3[nH]c(=O)c(Cc4ccc(Cl)cc4O)cc32)[C@@H](CN2CCO[C@H](C(=O)NCc3ccc(CNC(=O)[C@@H]4CN(C[C@H]5CN[C@H](C)CN5CC(=O)N5CC(C)(C)c6[nH]c(=O)c(Cc7ccc(Cl)cc7O)cc65)CCO4)cc3)C2)CN1` [Compound 164, (2S,2′S)-N,N′-(1,4-phenylenebis(methylene)) bis(4-(((2R,5R)-1-(2-(6-(4-chloro-2-hydroxybenzyl)-3,3-dimethyl-5-oxo-2,3,4,5-tetrahydro-1H-pyrrolo[3,2-b]pyridin-1-yl)-2-oxoethyl)-5-methylpiperazin-2-yl)methyl)morpholine-2-carboxamide)]: the EC50 in experiment [1] was 63.1 to 316 nM. For the same compound, the IC50 at cIAP1-BIR3 lay within 1.38 to 7.94 nM; at cIAP1-BIR2, 22.4 to 1000 nM; at cIAP2-BIR3 it was 1.38 to 7.94 nM; on cIAP2-BIR2, 22.4 to 1000 nM; on XIAP-BIR3, 7.94 to 15.8 nM. In addition, the “cIAP1 BIR3 vs BIR2 separation window” value on cIAP1-BIR3 is reported as “++ (1,000>FS>100)”. Moreover, the “cIAP2 BIR3 vs BIR2 separation window” value at cIAP2-BIR3 is “++ (1,000>FS>100)”.

For `C[C@@H]1CN(CC(=O)N2CC(C)(C)c3[nH]c(=O)c(Cc4ccc(Cl)cc4Cl)cc32)[C@@H](CN2CCO[C@H](C(=O)NCc3ccc(CNC(=O)[C@@H]4CN(C[C@H]5CN[C@H](C)CN5CC(=O)N5CC(C)(C)c6[nH]c(=O)c(Cc7ccc(Cl)cc7Cl)cc65)CCO4)cc3)C2)CN1` [Compound 165, (2S,2′S)-N,N′-(1,4-phenylenebis(methylene)) bis(4-(((2R,5R)-1-(2-(6-(2,4-dichlorobenzyl)-3,3-dimethyl-5-oxo-2,3,4,5-tetrahydro-1H-pyrrolo[3,2-b]pyridin-1-yl)-2-oxoethyl)-5-methylpiperazin-2-yl)methyl)morpholine-2-carboxamide)], in experiment [1], the EC50 is 12.6 to 63.1 nM. The IC50 on cIAP1-BIR3 lay within 7.94 to 15.8 nM; on cIAP1-BIR2, 1000 to 3160 nM; on cIAP2-BIR3, 1.38 to 7.94 nM; at cIAP2-BIR2, 3160 to 10000 nM; at XIAP-BIR3, 31.6 to 501 nM. The “cIAP1 BIR3 vs BIR2 separation window” value at cIAP1-BIR3 was “+++ (10,000>FS>1,000)”. Further, the “cIAP2 BIR3 vs BIR2 separation window” value at cIAP2-BIR3 is “+++ (10,000>FS>1,000)”.

With `Cc1cc(Cl)ccc1Cc1cc2c([nH]c1=O)C(C)(C)CN2C(=O)CN1C[C@@H](C)NC[C@@H]1CN1CCO[C@H](C(=O)NCc2ccc(CNC(=O)[C@@H]3CN(C[C@H]4CN[C@H](C)CN4CC(=O)N4CC(C)(C)c5[nH]c(=O)c(Cc6ccc(Cl)cc6C)cc54)CCO3)cc2)C1` [Compound 168, (2S,2′S)-N,N′-(1,4-phenylenebis(methylene)) bis(4-(((2R,5R)-1-(2-(6-(4-chloro-2-methylbenzyl)-3,3-dimethyl-5-oxo-2,3,4,5-tetrahydro-1H-pyrrolo[3,2-b]pyridin-1-yl)-2-oxoethyl)-5-methylpiperazin-2-yl)methyl)morpholine-2-carboxamide)], the EC50 in experiment [1] was 0.49 to 12.6 nM. For the same compound, the IC50 on cIAP1-BIR3 lay in the range of 15.8 to 31.6 nM; at cIAP2-BIR3, 7.94 to 15.8 nM; at cIAP2-BIR2, 22.4 to 1000 nM; on XIAP-BIR3, 31.6 to 501 nM. For the same compound, the “cIAP2 BIR3 vs BIR2 separation window” value on cIAP2-BIR3 is “++ (1,000>FS>100)”.

`C[C@@H]1CN(CC(=O)N2CC(C)(C)c3[nH]c(=O)c(Cc4ccc(F)cc4)cc32)[C@@H](CN2CCC(CCOc3cccc(OCCC4CCN(C[C@H]5CN[C@H](C)CN5CC(=O)N5CC(C)(C)c6[nH]c(=O)c(Cc7ccc(F)cc7)cc65)CC4)c3)CC2)CN1` [Example 108, 1,1′-(2,2′-((3R,3′R,6R,6′R)-((((1,3-phenylenebis(oxy))bis(ethane-2,1-diyl))bis(piperidine-4,1-diyl))bis(methylene))bis(3-methylpiperazine-6,1-diyl))bis(acetyl))bis(6-(4-fluorobenzyl)-3,3-dimethyl-1,2,3,4-tetrahydro-5H-pyrrolo[3,2-b]pyridin-5-one)]: the EC50 in experiment [1] is 12.6 to 63.1 nM. The IC50 fell in the range of 15.8 to 31.6 nM at cIAP1-BIR3, 15.8 to 31.6 nM on cIAP2-BIR3, 10000 to 51300 nM at cIAP2-BIR2 and 31.6 to 501 nM at XIAP-BIR3.
